# Data taken from patent publication US9115159B2, “Phosphate compounds, a process for their preparation and pharmaceutical compositions containing them” (LES LABORATOIRES SERVIER, priority 2013, dated 2015).
# Where two headings read alike, the source gives them in different places.
# Key:
# human Caco-2 cells = experiment: In vitro test on human Caco-2 cells, cellular transport A to B; assay type: in vitro ADME; conditions: 120 minutes; for Yield (experiment yield), the drug after incubation of the prodrug / Fabs (predicted absorbed fraction in humans), the drug after incubation of the prodrug / Yield (experiment yield), compound measured: the prodrug itself / Papp, compound measured: the prodrug itself: prodrug incubated; for Yield (experiment yield), the drug after incubation of the prodrug / Fabs (predicted absorbed fraction in humans), the drug after incubation of the prodrug: corresponding drug measured; for Yield (experiment yield), compound measured: the prodrug itself: total amount found at the end versus incubated; for Papp, compound measured: the prodrug itself: deposited apically at 1 or 3 μM
# Method: (§1) The cellular transport from A to B (Apical to Basolateral) of the phosphate compounds of formula (I) and the compounds of formula (I′) (corresponding drugs) is studied in human Caco-2 cells. Each compound is deposited apically at 1 or 3 μM (in duplicate) and then incubated for 120 minutes.
# (§2) Several samples are taken during the experiment; • apically: immediately after deposition (t=0) and at 120 minutes • basolaterally: at the end of the experiment (120 minutes)
# (§3) The concentrations of the phosphate compound (prodrug) and/or of its hydroxylated homologue (drug) are determined by liquid chromatography coupled with mass spectrometric detection (LC-MS/MS). The limit of quantification for both entities is 2 ng/mL.
# (§4) The apparent permeability (Papp) and the predicted absorbed fraction (Fabs) in humans are calculated for the prodrug, for the drug after incubation of the prodrug and for the drug after incubation of the drug (Hubatsch et al, Nat Protoc. 2007; 2(9), 2111-2119).
# (§5) The experiment yield, which corresponds to the ratio (in percent) of the total amount of compound found at the end of the experiment versus that incubated, is also calculated.
# [1] = as above; assay type: in vitro ADME; conditions: human, Caco-2, drug incubated and measured, A to B, 1 or 3 μM, read-out: Papp, the drug after incubation of the drug
# Method: as §1, §2, §3, §4, §5
# [2] = Solubility in aqueous medium buffered to physiological pH (phosphate 0.33M, pH 7.4); assay type: physicochemical
# Method: The solubilities of the compounds were also measured in a medium buffered to physiological pH (cf. Table 3).
# [3] = Pharmacokinetic profile / in vivo conversion after oral administration to SCID mice (plasma, LC-MS/MS); set-up: species or system female SCID mice; conditions: aqueous formulation (1M sodium carbonate)
# Method: The pharmacokinetic profile of the phosphate compounds of formula (I) is evaluated in a lipid formulation and in aqueous solution in female SCID mice. This is compared to the pharmacokinetic profile of compounds of formula (I′) in a lipid formulation. More specifically, 4-[{[3-(6-{[(3S)-3-(morpholin-4-ylmethyl)-3,4-dihydroisoquinolin-2(1H)-yl]-carbonyl}-1,3-benzodioxol-5-yl)-5,6,7,8-tetrahydroindolizin-1-yl]carbonyl}(phenyl)-amino]phenyl disodium phosphate (also referred to as the compound of Example 1) was tested and compared to N-(4-hydroxyphenyl)-3-{6-[((3S)-3-(4-morpholinylmethyl)-3,4-dihydro-2(1H)-isoquinolinyl)carbonyl]-1,3-benzodioxol-5-yl}-N-phenyl-5,6,7,8-tetrahydro-1-indolizine carboxamide (also referred to as the drug from Example 1).
# The compound of Example 1 is prepared in a mixture of anhydrous ethanol/polyethylene glycol 300/water (10/40/50, v/v/v) intended for administration by the p.o. route. The study is carried out in 2 groups of SCID mice to which the compound of Example 1 is administered under the following conditions: • Group 1: 3 mg/kg p.o. (gavage, 10 mL/kg), • Group 2: 25 mg/kg p.o. (gavage, 10 mL/kg).
# Blood samples are taken at the following points in time (3 samples per animal and 3 animals for each point in time): 0.25 hr, 0.5 hr, 1 hr, 2 hrs, 6 hrs and 24 hrs after oral administration.
# The compound of Example 1 is also administered by the oral route in an aqueous medium to SCID mice, under the following conditions: • Group 1: 30 mg/kg p.o. dissolved in 1 mM sodium carbonate solution (gavage, 10 mL/kg), • Group 2: 100 mg/kg p.o. in water (gavage, 10 mL/kg).
# Blood samples are taken at the following points in time (3 animals for each point in time and 1 sample per animal): 0.25 hr, 0.5 hr, 1 hr, 2 hrs, 4 hrs, 6 hrs and 24 hrs after oral administration.
# For all formulations of the compound of Example 1, the blood thereby collected is centrifuged and the plasma is transferred to tubes containing 1M hydrochloric acid. The plasma concentrations of the phosphate compound (prodrug) and its hydroxylated homologue (drug) are determined simultaneously using a method of liquid chromatography coupled with mass spectrometric detection (TFC-LC-MS/MS). The limit of detection for both entities is 0.5 ng/mL.
# The drug from Example 1 is prepared in a mixture of anhydrous ethanol/polyethylene glycol 300/water (10/40/50, v/v/v) intended for administration by the p.o. route. The study is carried out in several groups of SCID mice to which the drug from Example 1 is administered under the following conditions: • Group 1: 3 mg/kg p.o. (gavage, 10 mL/kg), • Group 2: 30 mg/kg p.o. (gavage, 10 mL/kg), • Group 3: 25 mg/kg p.o. (gavage, 10 mL/kg), • Group 4: 100 mg/kg p.o. (gavage, 10 mL/kg).
# Blood samples are taken at the following points in time (3 animals for each point in time and 3 samples per animal for Groups 1-2 and 1 sample per animal for Groups 3 and 4): • p.o.: before administration and then 0.25 hr, 0.5 hr, 0.75 hr, 1 hr, 2 hrs, 4 hrs, 6 hrs, 8 hrs, 16 hrs and 24 hrs after oral administration at 3 and 30 mg/kg, • p.o.: 0.5 hr, 2 hrs, 6 hrs, 16 hrs and 24 hrs after oral administration at 25 mg/kg and 0.5 hr, 1 hr, 2 hrs, 6 hrs, 16 hrs, 30 hrs and 48 hrs after oral administration at 100 mg/kg.
# The plasma from the blood samples collected after administration of the lipid formulations of the drug from the compound of Example 1 are analysed by liquid chromatography coupled with mass spectrometric detection. The limit of quantification of the drug from the compound of Example 1 is less than or equal to 0.5 ng/mL.
# Non-compartmental pharmacokinetic analysis is carried out on the mean values of the plasma concentrations of the compounds tested. […]
# [4] = phosphate 0.33M, pH = 7.4, 10 μM
# [5] = phosphate 0.33M, pH = 7.4, 20 μM
# [6] = phosphate 0.33M, pH = 7.4, 50 μM
# [7] = phosphate 0.33M, pH = 7.4, 100 μM
# [8] = Example 25 administered 3 mg/kg p.o.
# [9] = Example 25 administered 25 mg/kg p.o.
# [10] = Example 20 administered 25 mg/kg p.o.
SMILES,"Solubility at 10 μM [2, 4]","Solubility at 20 μM [2, 5]","Solubility at 50 μM [2, 6]","Solubility at 100 μM [2, 7]","Yield (experiment yield), the drug after incubation of the prodrug (human Caco-2 cells)","Fabs (predicted absorbed fraction in humans), the drug after incubation of the prodrug (human Caco-2 cells; A to B, 1 or 3 μM)","Yield (experiment yield), compound measured: the prodrug itself (human Caco-2 cells)",also measured
"Cc1c(C(=O)N(c2ccc(O)cc2)c2cc(C#N)n(C)c2)cc(-c2cc(Cl)ccc2C(=O)N2Cc3ccccc3C[C@H]2CN2CCOCC2)n1C [Drug from Example 21, 5-(5-Chloro-2-{[(3S)-3-(morpholin-4-ylmethyl)-3,4-dihydroisoquinolin-2(1H)-yl]carbonyl}phenyl)-N-(5-cyano-1-methyl-1H-pyrrol-3-yl)-N-(4-hydroxyphenyl)-1,2-dimethyl-1H-pyrrole-3-carboxamide]",–,–,–,–,–,–,–,"Yield (experiment yield), the drug after incubation of the drug (human Caco-2 cells; drug incubated and measured): Yield (%) = 82; Fabs (predicted absorbed fraction in humans), the drug after incubation of the drug (human Caco-2 cells; drug incubated and measured, A to B, 1 or 3 μM): Fabs (%) = 24; Papp A→B at 120 min [1]: 0.27 ×10⁻⁶ cm/s"
"[2H]C([2H])([2H])n1cc(N(C(=O)c2cc(-c3cc(Cl)ccc3C(=O)N3Cc4ccccc4C[C@H]3CN3CCOCC3)n(C)c2C)c2ccc(O)cc2)cn1 [Drug from Example 19, 5-(5-Chloro-2-{[(3S)-3-(morpholin-4-ylmethyl)-3,4-dihydroisoquinolin-2(1H)-yl]carbonyl}phenyl)-N-(4-hydroxyphenyl)-1,2-dimethyl-N-[1-(trideuteriomethyl)-1H-pyrazol-4-yl]-1H-pyrrole-3-carboxamide]",Soluble,Soluble,Soluble,Insoluble,–,–,–,–
"C[C@@H]1Cc2ccccc2CN1C(=O)c1cc2c(cc1-c1cc(C(=O)N(c3ccc(OP(=O)([O-])[O-])cc3)c3cnc4c(ccn4C)c3)c3ccccn13)OCO2.[Na+].[Na+] [Example 4, 4-[{[3-(6-{[(3R)-3-Methyl-3,4-dihydroisoquinolin-2(1H)-yl]carbonyl}-1,3-benzodioxol-5-yl)indolizin-1-yl]carbonyl}(1-methyl-1H-pyrrolo[2,3-b]pyridin-5-yl)amino]phenyl disodium phosphate]",–,–,–,–,Yield (%) = 38,Fabs (%) = 69,Yield (%) = 1.3,"Papp, compound measured: the prodrug itself (human Caco-2 cells; A to B): Papp (10^−6 cm/s) = 0.33"
"C[C@@H]1Cc2ccccc2CN1C(=O)c1cc2c(cc1-c1cc(C(=O)N(c3ccncc3)c3ccc(OP(=O)([O-])[O-])cc3)c3ccccn13)OCO2.[Na+].[Na+] [Example 5, 4-[{[3-(6-{[(3R)-3-Methyl-3,4-dihydroisoquinolin-2(1H)-yl]carbonyl}-1,3-benzodioxol-5-yl)indolizin-1-yl]carbonyl}(pyridin-4-yl)amino]phenyl disodium phosphate]",–,–,–,–,Yield (%) = 78,Fabs (%) = 86,Yield (%) = 1.2,"Papp, compound measured: the prodrug itself (human Caco-2 cells; A to B): Papp (10^−6 cm/s) = 0.26"
"[2H]C([2H])([2H])n1cc(N(C(=O)c2cc(-c3cc(Cl)ccc3C(=O)N3Cc4ccccc4C[C@H]3CN3CCOCC3)n(C)c2C)c2ccc(OP(=O)([O-])[O-])cc2)cn1.[Na+].[Na+] [Example 19, 4-({[5-(5-Chloro-2-{[(3S)-3-(morpholin-4-ylmethyl)-3,4-dihydroisoquinolin-2(1H)-yl]carbonyl}phenyl)-1,2-dimethyl-1H-pyrrol-3-yl]carbonyl}[1-(trideuteriomethyl)-1H-pyrazol-4-yl]amino)phenyl disodium phosphate]",–,–,–,–,–,–,–,Solubility at 10 μM [2]: Soluble; Solubility at 20 μM [2]: Soluble; Solubility at 50 μM [2]: Soluble; Solubility at 100 μM [2]: Soluble

# Continued, in another order:
"Solubility at 10 μM [2, 4]","Solubility at 20 μM [2, 5]","Solubility at 50 μM [2, 6]","Solubility at 100 μM [2, 7]","Yield (experiment yield), the drug after incubation of the prodrug (human Caco-2 cells)","Fabs (predicted absorbed fraction in humans), the drug after incubation of the prodrug (human Caco-2 cells; A to B, 1 or 3 μM)","Yield (experiment yield), compound measured: the prodrug itself (human Caco-2 cells)",SMILES,also measured
Soluble,Soluble,Soluble,Soluble,Yield (%) = 48,Fabs (%) = 20,Yield (%) = 33,"Cc1c(N(C(=O)c2cc(-c3cc(F)ccc3C(=O)N3Cc4ccccc4C[C@H]3CN3CCOCC3)n(C)c2C)c2ccc(OP(=O)([O-])[O-])cc2)cc(C#N)n1C.[Na+].[Na+] [Example 25, 4-[(5-Cyano-1,2-dimethyl-1H-pyrrol-3-yl){[5-(5-fluoro-2-{[(3S)-3-(morpholin-4-ylmethyl)-3,4-dihydroisoquinolin-2(1H)-yl]carbonyl}phenyl)-1,2-dimethyl-1H-pyrrol-3-yl]carbonyl}amino]phenyl disodium phosphate]","AUCt, compound measured: Example 25 [3, 8]: AUCt (ng · h/mL) = 14; Cmax, compound measured: Example 25 [3, 8]: Cmax (ng/mL) = 17; Tmax, compound measured: Example 25 [3, 8]: Tmax (h) = 1.0; AUCt, compound measured: Example 25 [3, 9]: AUCt (ng · h/mL) = 114; Cmax, compound measured: Example 25 [3, 9]: Cmax (ng/mL) = 106; Tmax, compound measured: Example 25 [3, 9]: Tmax (h) = 1.0"
Soluble,Soluble,Soluble,Soluble,Yield (%) = 100,Fabs (%) = 16,Yield (%) = 0.94,"Cc1c(N(C(=O)c2cc(-c3cc(Cl)ccc3C(=O)N3Cc4ccccc4C[C@H]3CN3CCOCC3)n(C)c2C)c2ccc(OP(=O)([O-])[O-])cc2)cc(C#N)n1C.[Na+].[Na+] [Example 20, 4-[{[5-(5-Chloro-2-{[(3S)-3-(morpholin-4-ylmethyl)-3,4-dihydroisoquinolin-2(1H)-yl]carbonyl}phenyl)-1,2-dimethyl-1H-pyrrol-3-yl]carbonyl}(5-cyano-1,2-dimethyl-1H-pyrrol-3-yl)amino]phenyl disodium phosphate]","Cmax, compound measured: Example 20 ([3]; Example 20 administered 3 mg/kg p.o., BLQ: below the limit of quantification): Cmax (ng/mL) = BLQ; AUCt, compound measured: Example 20 [3, 10]: AUCt (ng · h/mL) = 106; Cmax, compound measured: Example 20 [3, 10]: Cmax (ng/mL) = 127; Tmax, compound measured: Example 20 [3, 10]: Tmax (h) = 0.25"
